The values below come from patent US3939263A, “Methods of combatting insects and acarina using oxygenated derivatives of S-(tert-bulythio)methyl O,O-diethyl phosphorodithioate and phosphorothioate” (priority 1974, dated 1976).

The test system of data set [1] is Malaria Mosquito. Briefly: Malaria Mosquito adult test, treated slide. Particulars: Anopheles quadrimaculatus, 24 h, adults, one day, read-out: % Kill, Malaria Mosquito. The format is in vivo, Anopheles quadrimaculatus Say. As to the method:
Malaria Mosquito -- Anopheles quadrimaculatus Say -- Adult Test
Ten ppm. acetone solutions of test compounds are poured into wide-mouth 2-ounce jars each containing a microscope slide. The slides are removed from the test solution with forceps and laid horizontally to dry on a wide-mouth 4-ounce bottle. When dry, they are placed in the same 4-ounce bottle and 10 4-to 5-day-old mosquitoes of mixed sexes are added to each bottle. A piece of cotton gauze held on by an elastic band serves as a lid and wad of cotton soaked in 10% honey solution serves as food. Mortality counts are made after one day at 80°F., 50% r.h.

Data set [2] concerns Bean Aphid. The data set is described as follows: Bean Aphid, sprayed nasturtium plants. The format is in vivo, Aphis fabae Scopoli. Particulars: Aphis fabae, 24 h, one day, read-out: % Kill, Bean Aphid. As to the method:
Bean Aphid -- Aphis fabae Scopoli
Two-inch fiber pots, each containing a nasturtium plant 2 inches high and infested with 100 to 150 aphids 2 days earlier are placed on a 4 […] an Atomizer at 20 psi. air pressure. The spray tip is held about 6 inches from the plants and the spray directed so as to give complete coverage of the aphids and the plants. The sprayed plants are laid on their sides on white enamel trays. Mortality estimates are made after one day at 70°F., 50% r.h.

Data set [3] deals with Southern Armyworm. The data set is described as follows: Southern Armyworm, dipped lima bean leaf. The format is in vivo, Spodoptera eridania (Cramer). The note with it: Spodoptera eridania, 48 h, 2 days, read-out: % Kill, Southern Armyworm. As to the method: Southern Armyworm -- Spodoptera eridania (Cramer)
A Sieva lima bean plant with just the primary leaves expanded to 3 to 4 inches is dipped for 3 seconds with agitation in a 35/65% water/acetone mixture containing 1000 ppm. of test compound and set in the hood to dry. Following this, one leaf is placed in a 4-inch petri dish which has a moist filter paper in the bottom and ten third-instar armyworm larvae about three-eighths inch long. The dish is covered and held at 80°F., and 50% r.h. After 2 days, mortality counts and estimates of the amount of feeding are made. Compounds showing partial kill and/or inhibition of feeding are held for an extra day for further observations.

Data set [4] has as its system Boophilus microplus ticks. Briefly: Tick larvae, simulated spray in pipette. The format is in vivo. Particulars: Rhipicephalus microplus, 48 hours, read-out: % Kill, Ticks. As to the method: Ticks -- Boophilus microplus
In these tests, 20 larvae are enclosed in a pipette sealed at one end with a gauze material. A 10% acetone/water solution with the drug in it is then sucked through the pipette with a vacuum hose, thus simulating a spray system. The ticks are then held for 48 hours and mortality is determined.

The nature of data set [5]: Mammalian toxicity, LD50 in mice. The format is in vivo, male albino mice of the CFI strain. The note with it: mouse, in vivo; male albino mice, corn oil, 0.5 ml./kg. Here is the method:
For the tests reported in Table II, 20 male albino mice of the CFI strain, weighing approximately 18 grams to 20 grams are selected. The phosphates are readied for administration by preparing a solution or dispersion in corn oil (Mazola), the concentration of which is adjusted so that the total volume of the dose is 0.5 ml./kg. in every case. The initial solution is prepared by deciding upon the maximum dosage in mg./kg. to be administered and preparing 10 ml. of this solution of such a concentration that the desired dosage in mg./kg. is delivered when 0.5 ml. of the solution is administered for 20 grams of mouse body weight. Serial dilutions differing by a factor of two are then prepared for each lower dosage level. LD50 stands for the lethal dose in mg./kg. which kills 50% of the mice.

Data set [6] deals with Western Potato Leafhopper. Briefly: Western Potato Leafhopper, dipped lima bean leaf. The note with it: 48 h, 2 days, read-out: % Kill, Western Potato Leafhopper. The format is in vivo, Empoasca abrupta Say. The text has this:
Western Potato Leafhopper -- Empoasca abrupta Say
A Sieva lima bean plant with the primary leaf expanded to 3 to 4 inches is dipped into a 35/65% water/acetone mixture containing 100 ppm. of test compound and set in the hood to dry. A 1-inch piece of the tip of one leaf is cut off and placed in a 4-inch petri dish with a moist filter paper in the bottom. From three to 10 second-instar nymphs are tapped from the culture plants into the test dish and rapidly covered. Mortality counts are made after 2 days at 80°F., and 50% r.h.

Data set [7] relates to Two-Spotted Spider Mite. The data set is described as follows: Two-Spotted Spider Mite, dipped infested lima bean plants. The format is in vivo, Tetranychus urticae (Koch). The note with it: Tetranychus urticae, read-out: % Kill, Two-Spotted Spider Mite. Here is the method:
Two-Spotted Spider Mite -- Tetranychus urticae (Koch)
Sieva lima bean plants, with primary leaves 3 to 4 inches long, are infested with about 100 adult mites per leaf 4 hours before use in this test, in order to allow egg-laying before treatment. The infested plants are dipped for 3 seconds with agitation into a 35/65% water/acetone mixture containing 1000 ppm. of test compound and the plants set in the hood to dry. After 2 days at 80°F., and 50% r.h., the adult mite mortality is estimated on one leaf under a 10X stereoscopic microscope. The other leaf is left on the plant an additional 5 days and then examined at 10X power to estimate the kill of eggs and of newly hatched nymphs, giving a measure of ovicidal and residual action, respectively.

The subject of data set [8] is Mexican Bean Beetle. Briefly: Mexican Bean Beetle, dipped lima bean leaves. The format is in vivo, Epilachna varivestis Mulsant. The note with it: Epilachna varivestis, read-out: % Kill, Mexican Bean Beetle. An excerpt:
Mexican Bean Beetle -- Epilachna varivestis Mulsant
Sieva lima bean plants (two per pot) with primary leaves 3 to 4 inches long, are dipped in a 35/65% water/acetone mixture containing 100 ppm. of test compound and set in the hood to dry. One leaf is removed from a plant and placed in a 4-inch petri dish containing a moist filter paper on the bottom and 10 last-instar larvae (13 days from hatching). The day after treatment, another leaf is removed from the plant and fed to the larvae after removing the remains of the original leaf. Two days after treatment, the third leaf is fed to the larvae, this usually being the last needed. The fourth leaf is used on the third day after treatment if the larvae have not finished feeding. The test is now set aside and held until adults have emerged, usually in about nine days after treatment began. After emergence is complete, each dish is examined for dead larvae, pupae or adults; deformed pupae or adults; larval-pupal intermediates or pupal-adult intermediates; or any other interference with normal molting, transformation and emergence of pupae or adults.

One may read the LD50 as the dose expected to kill half of the subjects tested. Turning to `CCOP(=O)(OCC)SC[S+]([O-])C(C)(C)C` (stereo not drawn) [O,O-diethyl S-(tert-butylsulfinyl)methyl Phosphorothioate], the mortality at 1 ppm in data set [1] was found to be 40%; in data set [2], 100%. For the same molecule, the mortality at 10 ppm in data set [1], in data set [2], in data set [6] and in data set [8] was 100% in each case. For the same molecule, the mortality at 100 ppm in data set [2], in data set [3], in data set [4] (100 ppm), in data set [6], in data set [7] and in data set [8] was 100% throughout. For the same molecule, the mortality at 1000 ppm in data set [3] and in data set [7] was 100% throughout. The same molecule showed a 50% lethal dose (LD50) in data set [5] of 1.1 mg/kg.
Take `CCOP(=S)(OCC)SC[S+]([O-])C(C)(C)C` (stereo not drawn) [O,O-diethyl S-(tert-butylsulfinyl)methyl phosphorodithioate, reference compound]: the results for the mortality at 1 ppm in data set [1] and in data set [2] were 0% and 100%, respectively. Also, the mortality at 10 ppm in data set [1] was determined as 80%; in data set [2], 100%; in data set [6], 100%; in data set [8], 80%. For the same molecule, the mortality at 100 ppm in data set [2] is 100%; in data set [3] it was 70%; in data set [6] it was 100%; in data set [7], 100%; in data set [8], 90%. The mortality at 1000 ppm in data set [3] and in data set [7] was 100% in each case. Moreover, the mortality at 33 ppm in data set [4] was 0%. In addition, in data set [5], the LD50 was determined as 3.4 mg/kg.
Take `CCOP(=S)(OCC)SCS(=O)(=O)C(C)(C)C` [O,O-diethyl S-(tert-butylsulfonyl)methyl Phosphorodithioate]: the mortality at 1 ppm in data set [1] came out at 50%; in data set [2], 100%. Further, the mortality at 10 ppm in data set [1] and in data set [2] was 100% throughout. For the same molecule, the mortality at 100 ppm in data set [2], in data set [3], in data set [7] and in data set [8] was 100% throughout. In addition, the mortality at 1000 ppm in data set [3] and in data set [7] was 100% throughout. Also, the LD50 in data set [5] came to 14 mg/kg.
Turning to `CCOP(=O)(OCC)SCS(=O)(=O)C(C)(C)C` [O,O-diethyl S-(tert-butylsulfonyl)methyl Phosphorothioate], the mortality at 1 ppm came out at 0% in data set [1] and 100% in data set [2]. Further, the mortality at 10 ppm in data set [1] was determined as 50%; in data set [2], 100%; in data set [6] it was 100%; in data set [8], 70%. The mortality at 100 ppm in data set [2] worked out at 100%; in data set [3] it was 100%; in data set [6] it was 100%; in data set [7], 100%; in data set [8] it was 90%. The mortality at 1000 ppm in data set [3] and in data set [7] was 100% in each case. Besides, the mortality at 33 ppm in data set [4] is 0%. In data set [5], this molecule registered an LD50 of 3.4 mg/kg.
